Results taken from BigSolDB 2.1.

CCOc1ccccc1C(N)=O
solubility (mole fraction)
Details	293.15 K	298.15 K	303.15 K	308.15 K	313.15 K	318.15 K	323.15 K
in acetonitrile	0.00709	0.0091	0.0123	0.0167	0.022	0.0285	0.0377
in ethanol	0.0121	0.0162	0.0198	0.0252	0.0313	0.0392	0.0472
in isopropanol	0.0097	0.0125	0.0155	0.0189	0.024	0.0304	0.0391
in methanol	0.016	0.02	0.0252	0.0306	0.0392	0.0484	0.0596
